For one assay, the system named is JeKo-1 cells. Put plainly: Antiproliferative effect, MTS cell viability assay, JeKo-1 cells. Type of assay: cell-based. As to conditions: Homo sapiens; JeKo-1 mantle cell lymphoma cells; read-out: IC50 (anti-proliferation) JeKO-1 cells. An outline of the steps:
(§1)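 Steps: seed B-cell lymphoma line; add compound at 0, 0.001, 0.01, 0.1, 1 or 10 μM; incubate 72 h; add MTS and read reduced tetrazolium (formazan) absorbance at 490 nm.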
Background: Tetrazolium assays rely on reduction of a dye to a coloured formazan, in cell work by metabolically active cells.

A further assay relates to Mino cells. Kind of assay: Antiproliferative effect, MTS cell viability assay, Mino cells. Type of assay: cell-based. As to conditions: Homo sapiens, MINO, Mino mantle cell lymphoma cells; read-out: IC50 (anti-proliferation) Mino cells. An outline of the steps: as §1
The target in another assay is BTK (Homo sapiens, UniProt Q06187). Kind of assay: Degradation of BTK protein in Namalwa cells (Western blot; DC50, Dmax). The conditions noted are these: for DC50: BTK degradation, cell line not given.
BTK, sequence (Q06187 whole entry): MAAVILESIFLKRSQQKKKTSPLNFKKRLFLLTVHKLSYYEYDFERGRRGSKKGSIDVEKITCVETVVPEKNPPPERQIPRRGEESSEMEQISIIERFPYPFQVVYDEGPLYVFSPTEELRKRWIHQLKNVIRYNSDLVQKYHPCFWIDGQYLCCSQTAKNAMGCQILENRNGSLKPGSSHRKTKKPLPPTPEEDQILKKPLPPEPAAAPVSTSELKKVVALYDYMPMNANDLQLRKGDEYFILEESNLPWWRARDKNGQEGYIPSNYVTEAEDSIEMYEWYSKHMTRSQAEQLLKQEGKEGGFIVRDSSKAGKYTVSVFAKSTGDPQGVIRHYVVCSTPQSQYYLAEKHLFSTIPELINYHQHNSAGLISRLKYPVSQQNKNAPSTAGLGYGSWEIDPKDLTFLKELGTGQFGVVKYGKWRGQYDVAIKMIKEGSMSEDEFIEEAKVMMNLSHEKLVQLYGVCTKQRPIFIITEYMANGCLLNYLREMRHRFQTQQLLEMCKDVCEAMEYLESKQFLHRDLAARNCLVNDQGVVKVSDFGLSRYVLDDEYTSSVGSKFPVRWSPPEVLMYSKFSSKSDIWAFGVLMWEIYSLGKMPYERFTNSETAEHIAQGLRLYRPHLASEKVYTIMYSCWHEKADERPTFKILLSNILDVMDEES

SMILES strings stand for the structures. Where only a bound is given, the exact number is not on record here.

A word on the Dmax: it is the greatest extent of degradation seen. By DC50 is commonly meant the concentration at which degradation of the target reaches its halfway point. A lower DC50 goes with a more potent degrader. With `Nc1ncnc2c1c(-c1ccc(Oc3ccccc3)cc1)nn2C1CCN(C2CCN(C(=O)N3CCN(CCN4CCC(c5ccc6c(c5)C(=O)N(C5CCC(=O)NC5=O)C6=O)CC4)CC3)CC2)CC1` (stereo not drawn) [Compound 249, 5-(1-(2-(4-(4-(4-amino-3-(4-phenoxyphenyl)-1H-pyrazol[3,4-d]pyrimidin-1-yl)-[1,4′-bipiperidine]-1′-carbonyl)piperazin-1-yl)ethyl)piperidin-4-yl)-2-(2,6-dioxopiperidin-3-yl)isoindoline-1,3-dione], the IC50 in the assay on JeKo-1 cells is 1000 to 10000 nM; in the assay with Mino cells, under 1000 nM. The compound also came in with a Dmax on BTK of over 75%. The compound also showed a DC50 at BTK of 10 to 50 nM.

As for `Nc1ncnc2c1c(-c1ccc(Oc3ccccc3)cc1)nn2C1CCN(C2CCN(C(=O)N3CCN(CCN4CCC(c5ccc6c(c5)CN(C5CCC(=O)NC5=O)C6=O)CC4)CC3)CC2)CC1` (stereo not drawn) [Compound 250], the IC50 in the assay with JeKo-1 cells was 1000 to 10000 nM. Besides, the IC50 in the assay on Mino cells fell in the range of 1000 to 10000 nM. On BTK, this compound came in with a Dmax of over 90% and a DC50 of 10 to 50 nM.

In the case of `Nc1ncnc2c1c(-c1ccc(Oc3ccccc3)cc1)nn2C1CCN(C2CCN(C(=O)N3CCC(CCN4CCN(c5ccc6c(c5)C(=O)N(C5CCC(=O)NC5=O)C6=O)CC4)CC3)CC2)CC1` (stereo not drawn) [Compound 251, 5-(4-(2-(1-(4-(4-amino-3-(4-phenoxyphenyl)-1H-pyrazolo[3,4-d]pyrimidin-1-yl)-[1,4′-bipiperidine]-1′-carbonyl)piperidin-4-yl)ethyl)piperazin-1-yl)-2-(2,6-dioxopiperidin-3-yl)isoindoline-1,3-dione], the IC50 in the assay with JeKo-1 cells was 1000 to 10000 nM. Moreover, the IC50 in the assay with Mino cells was under 1000 nM. In addition, at BTK, the Dmax was over 90% and the DC50 was in the range of 10 to 50 nM.

For the compound `Nc1ncnc2c1c(-c1ccc(Oc3ccccc3)cc1)nn2C1CCN(C2CCN(C(=O)N3CCC(CCN4CCN(c5ccc6c(c5)CN(C5CCC(=O)NC5=O)C6=O)CC4)CC3)CC2)CC1` (stereo not drawn) [Compound 252, 3-(5-(4-(2-(1-(4-(4-amino-3-(4-phenoxyphenyl)-1H-pyrazolo[3,4-d]pyrimidin-1-yl)-[1,4′-bipiperidine]-1′-carbonyl)piperidin-4-yl)ethyl)piperazin-1-yl)-1-oxoisoindolin-2-yl)piperidine-2,6-dione], the IC50 in the assay with JeKo-1 cells is under 1000 nM. Besides, the IC50 with Mino cells was under 1000 nM. On BTK, this compound showed a Dmax of over 90% and a half-maximal degradation concentration (DC50) of 10 to 50 nM.

As to `Nc1ncnc2c1c(-c1ccc(Oc3ccccc3)cc1)nn2C1CCN(C2CCN(C(=O)N3CCC(CCN4CCC(c5ccc6c(c5)C(=O)N(C5CCC(=O)NC5=O)C6=O)CC4)CC3)CC2)CC1` (stereo not drawn) [Compound 253, 5-(1-(2-(1-(4-(4-amino-3-(4-phenoxyphenyl)-1H-pyrazolo[3,4-d]pyrimidin-1-yl)-[1,4′-bipiperidine]-1′-carbonyl)piperidin-4-yl)ethyl)piperidin-4-yl)-2-(2,6-dioxopiperidin-3-yl)isoindoline-1,3-dione], the IC50 with JeKo-1 cells and with Mino cells was 1000 to 10000 nM throughout. The same compound showed a Dmax on BTK of over 90%. The DC50 at BTK is 10 to 50 nM.

As for `Nc1ncnc2c1c(-c1ccc(Oc3ccccc3)cc1)nn2C1CCN(C2CCN(C(=O)N3CCC(CCN4CCC(c5ccc6c(c5)CN(C5CCC(=O)NC5=O)C6=O)CC4)CC3)CC2)CC1` (stereo not drawn) [Compound 254, 3-(5-(1-(2-(1-(4-(4-amino-3-(4-phenoxyphenyl)-1H-pyrazolo[3,4-d]pyrimidin-1-yl)-[1,4′-bipiperidine]-1′-carbonyl)piperidin-4-yl)ethyl)piperidin-4-yl)-1-oxoisoindolin-2-yl)piperidine-2,6-dione], the IC50 with JeKo-1 cells was 1000 to 10000 nM. Moreover, the IC50 in the assay on Mino cells was 1000 to 10000 nM. Also, at BTK, the Dmax is over 90% and the DC50 was under 10 nM.

Turning to `Nc1ncnc2c1c(-c1ccc(Oc3ccccc3)cc1)nn2C1CCN(C2CCN(C(=O)N3CCC(CCC4CCN(c5ccc6c(c5)C(=O)N(C5CCC(=O)NC5=O)C6=O)CC4)CC3)CC2)CC1` (stereo not drawn) [Compound 255, 5-(4-(2-(1-(4-(4-amino-3-(4-phenoxyphenyl)-1H-pyrazolo[3,4-d]pyrimidin-1-yl)-[1,4′-bipiperidine]-1′-carbonyl)piperidin-4-yl)ethyl)piperidin-1-yl)-2-(2,6-dioxopiperidin-3-yl)isoindoline-1,3-dione], the IC50 in the assay on JeKo-1 cells lay in the range of 1000 to 10000 nM. Further, the IC50 in the assay on Mino cells is under 1000 nM. At BTK, this compound had a Dmax of over 90% and a DC50 of 10 to 50 nM.

Turning to `Nc1ncnc2c1c(-c1ccc(Oc3ccccc3)cc1)nn2C1CCN(C2CCN(C(=O)N3CCC(CCC4CCN(c5ccc6c(c5)CN(C5CCC(=O)NC5=O)C6=O)CC4)CC3)CC2)CC1` (stereo not drawn) [Compound 256, 3-(5-(4-(2-(1-(4-(4-amino-3-(4-phenoxyphenyl)-1H-pyrazolo[3,4-d]pyrimidin-1-yl)-[1,4′-bipiperidine]-1′-carbonyl)piperidin-4-yl)ethyl)piperidin-1-yl)-1-oxoisoindolin-2-yl)piperidine-2,6-dione], the IC50 with JeKo-1 cells lay in the range of 1000 to 10000 nM. For the same compound, the IC50 with Mino cells is under 1000 nM. On BTK, the Dmax was over 90% and the half-maximal degradation concentration (DC50) was under 10 nM.

For the compound `Nc1ncnc2c1c(-c1ccc(Oc3ccccc3)cc1)nn2C1CCN(C2CCN(C(=O)N3CCN(CCCN4CCN(c5ccc6c(c5)C(=O)N(C5CCC(=O)NC5=O)C6=O)CC4)CC3)CC2)CC1` (stereo not drawn) [Compound 257, 5-(4-(3-(4-(4-(4-amino-3-(4-phenoxyphenyl)-1H-pyrazolo[3,4-d]pyrimidin-1-yl)-[1,4′-bipiperidine]-1′-carbonyl)piperazin-1-yl)propyl)piperazin-1-yl)-2-(2,6-dioxopiperidin-3-yl)isoindoline-1,3-dione], the IC50 in the assay on JeKo-1 cells is over 10000 nM. The IC50 with Mino cells was over 10000 nM. For the same compound, at BTK, the Dmax is over 75% and the DC50 is over 50 nM.

`Nc1ncnc2c1c(-c1ccc(Oc3ccccc3)cc1)nn2C1CCN(C2CCN(C(=O)N3CCN(CCCN4CCN(c5ccc6c(c5)CN(C5CCC(=O)NC5=O)C6=O)CC4)CC3)CC2)CC1` (stereo not drawn) [Compound 258, 3-(5-(4-(3-(4-(4-(4-amino-3-(4-phenoxyphenyl)-1H-pyrazolo[3,4-d]pyrimidin-1-yl)-[1,4′-bipiperidine]-1′-carbonyl)piperazin-1-yl)propyl)piperazin-1-yl)-1-oxoisoindolin-2-yl)piperidine-2,6-dione]: the IC50 with JeKo-1 cells is over 10000 nM. Moreover, the IC50 in the assay on Mino cells lay in the range of 1000 to 10000 nM. Also, on BTK, the Dmax is over 75% and the DC50 lay in the range of 10 to 50 nM.

`Nc1ncnc2c1c(-c1ccc(Oc3ccccc3)cc1)nn2C1CCN(C2CCN(C(=O)N3CCN(CCCC4CCN(c5ccc6c(c5)C(=O)N(C5CCC(=O)NC5=O)C6=O)CC4)CC3)CC2)CC1` (stereo not drawn) [Compound 259, 5-(4-(3-(4-(4-(4-amino-3-(4-phenoxyphenyl)-1H-pyrazolo[3,4-d]pyrimidin-1-yl)-[1,4′-bipiperidine]-1′-carbonyl)piperazin-1-yl)propyl)piperidin-1-yl)-2-(2,6-dioxopiperidin-3-yl)isoindoline-1,3-dione]: in the assay on JeKo-1 cells, the IC50 lay within 1000 to 10000 nM. Also, the IC50 in the assay on Mino cells was over 10000 nM. Moreover, at BTK, the Dmax was over 75% and the DC50 is over 50 nM.

For the compound `Nc1ncnc2c1c(-c1ccc(Oc3ccccc3)cc1)nn2C1CCN(C2CCN(C(=O)N3CCN(CCCC4CCN(c5ccc6c(c5)CN(C5CCC(=O)NC5=O)C6=O)CC4)CC3)CC2)CC1` (stereo not drawn) [Compound 260, 3-(5-(4-(3-(4-(4-(4-amino-3-(4-phenoxyphenyl)-1H-pyrazolo[3,4-d]pyrimidin-1-yl)-[1,4′-bipiperidine]-1′-carbonyl)piperazin-1-yl)propyl)piperidin-1-yl)-1-oxoisoindolin-2-yl)piperidine-2,6-dione], the IC50 in the assay with JeKo-1 cells was in the range of 1000 to 10000 nM. Moreover, the IC50 with Mino cells was in the range of 1000 to 10000 nM. On BTK, the Dmax was over 75% and the DC50 lay in the range of 10 to 50 nM.

Regarding `Nc1ncnc2c1c(-c1ccc(Oc3ccccc3)cc1)nn2C1CCN(C2CCN(C(=O)N3CCN(CCCN4CCC(c5ccc6c(c5)C(=O)N(C5CCC(=O)NC5=O)C6=O)CC4)CC3)CC2)CC1` (stereo not drawn) [Compound 261, 5-(1-(3-(4-(4-(4-amino-3-(4-phenoxyphenyl)-1H-pyrazolo[3,4-d]pyrimidin-1-yl)-[1,4′-bipiperidine]-1′-carbonyl)piperazin-1-yl)propyl)piperidin-4-yl)-2-(2,6-dioxopiperidin-3-yl)isoindoline-1,3-dione], the IC50 in the assay on JeKo-1 cells fell in the range of 1000 to 10000 nM. Also, the IC50 with Mino cells was over 10000 nM. On BTK, this compound returned a Dmax of over 90% and a DC50 of 10 to 50 nM.

For the compound `Nc1ncnc2c1c(-c1ccc(Oc3ccccc3)cc1)nn2C1CCN(C2CCN(C(=O)N3CCN(CCCN4CCC(c5ccc6c(c5)CN(C5CCC(=O)NC5=O)C6=O)CC4)CC3)CC2)CC1` (stereo not drawn) [Compound 262, 3-(5-(1-(3-(4-(4-(4-amino-3-(4-phenoxyphenyl)-1H-pyrazolo[3,4-d]pyrimidin-1-yl)-[1,4′-bipiperidine]-1′-carbonyl)piperazin-1-yl)propyl)piperidin-4-yl)-1-oxoisoindolin-2-yl)piperidine-2,6-dione], the values for the IC50 in the assay with JeKo-1 cells and in the assay on Mino cells were 1000 to 10000 nM and over 10000 nM, respectively. The compound further showed a Dmax at BTK of over 75%. The compound also had a DC50 on BTK of over 50 nM.

Take `Nc1ncnc2c1c(-c1ccc(Oc3ccccc3)cc1)nn2C1CCN(C2CCN(C(=O)N3CCC(CCCN4CCN(c5ccc6c(c5)C(=O)N(C5CCC(=O)NC5=O)C6=O)CC4)CC3)CC2)CC1` (stereo not drawn) [Compound 263, 5-(4-(3-(1-(4-(4-amino-3-(4-phenoxyphenyl)-1H-pyrazolo[3,4-d]pyrimidin-1-yl)-[1,4′-bipiperidine]-1′-carbonyl)piperidin-4-yl)propyl)piperazin-1-yl)-2-(2,6-dioxopiperidin-3-yl)isoindoline-1,3-dione]: the IC50 in the assay with JeKo-1 cells is over 10000 nM. In the assay on Mino cells, the IC50 lay within 1000 to 10000 nM. Moreover, on BTK, the Dmax was over 90% and the DC50 was in the range of 10 to 50 nM.

Values taken from patent US12139492B2 (Endotarget Inc., priority 2021, dated 2024).
